In experiment [1] the test system is Ames strain of B. anthracis. The experiment is classed as cell-based, Bacillus anthracis.
In experiment [2] the test system is Stearns strain of B. anthracis. The class given is cell-based, Bacillus anthracis.
Experiment [3] concerns Six strains of Bacillus species. The experiment can be described thus: Nathans Agar Well Diffusion technique, 3 replicate assays. The class given is cell-based. The settings on record: for average zone of inhibition: average over Bacillus strains tested. On the technique in general: A growth-free zone around the sample is the usual read-out of agar diffusion tests.
Experiment [4] has as its system P. aeruginosa. The experiment can be described thus: d-limonene inoculation assay (phenol-coefficient), subculture at 24/48/72 hr. The experiment is classed as cell-based, Pseudomonas aeruginosa. Details: key: NG = no growth. The settings on record: >10^5 CFU/ml in 2 ml d-limonene.
Experiment [5] has as its system Streptococcus pyogenes. The class given is cell-based.
The test system of experiment [6] is E. faecalis. Briefly: d-limonene inoculation assay (phenol-coefficient), subculture at 24/48/72 hr. As to conditions: >10^5 CFU/ml in 2 ml d-limonene. The experiment is classed as cell-based, Enterococcus faecalis. Details: key: NG = no growth.
Experiment [7] concerns Ent. cloacae. The class given is cell-based, Enterobacter cloacae. Details: key: NG = no growth.
For experiment [8], the system named is Streptococcus mutans. The experiment is classed as cell-based.
Experiment [9] concerns S. epidermidis. The experiment can be described thus: d-limonene inoculation assay (phenol-coefficient), subculture at 24/48/72 hr. The experiment is classed as cell-based, Staphylococcus epidermidis. Details: key: NG = no growth. As to conditions: >10^5 CFU/ml in 2 ml d-limonene.
Experiment [10] has as its system S. maltophilia. The experiment is classed as cell-based, Stenotrophomonas maltophila. Details: key: NG = no growth.
The subject of experiment [11] is Ac. baum/haemo. Briefly: d-limonene inoculation assay (phenol-coefficient), subculture at 24/48/72 hr. The experiment is classed as cell-based, Acinetobacter baummii/haemolyticus. Set-up: key: NG = no growth. The settings on record: >10^5 CFU/ml in 2 ml d-limonene.
For experiment [12], the system named is other beta hemolytic streptococci. The experiment is classed as cell-based.
Experiment [13] deals with S. marcescens. The experiment is classed as cell-based, Serratia marcescens. Details: key: NG = no growth.
The test system of experiment [14] is K. pneumoniae. Briefly: d-limonene inoculation assay (phenol-coefficient), subculture at 24/48/72 hr. As to conditions: >10^5 CFU/ml in 2 ml d-limonene. The class given is cell-based, Klebsiella pneumoniae. Details: key: NG = no growth.
Experiment [15] deals with E. coli. The experiment is described as above. The experiment is classed as cell-based, Escherichia coli. Set-up: key: NG = no growth. As to conditions: >10^5 CFU/ml in 2 ml d-limonene.
Experiment [16] relates to E. faecium. Described as above. The class given is cell-based, Enterococcus faecium. Set-up: key: NG = no growth. As to conditions: >10^5 CFU/ml in 2 ml d-limonene.
Experiment [17] deals with S. aureus. The experiment is described as above. The experiment is classed as cell-based, Staphylococcus aureus. Details: key: NG = no growth. The settings on record: >10^5 CFU/ml in 2 ml d-limonene.

`O=[N+]([O-])[O-].[Ag+]` [AgNO3, silver nitrate]: the zone of inhibition – broadly, the size of the clear area around the sample on an inoculated plate – in experiment [1] is 16 mm. Besides, the average inhibition zone in [2] is 18 mm. The “average zone of inhibition” value in experiment [3] worked out at 16 mm.

Regarding `C/C(=C\C(=O)OCCCCCCCCC(=O)O)C[C@@H]1OC[C@H](C[C@@H]2O[C@H]2[C@@H](C)[C@H](C)O)[C@@H](O)[C@H]1O` [Bactroban], in [1], the “susceptibility of the strain to the product” value (from here on “susceptibility of the strain”) was “susceptible” and the zone of inhibition is reported as 35 mm. Also, in experiment [2], the average inhibition zone was determined as 45 mm and the “susceptibility of the strain” value was “susceptible”. Also, the “average zone of inhibition” value in [3] is listed as 46 mm.

Compound `NC(=O)N/N=C/c1ccc([N+](=O)[O-])o1` [Furacin, nitrofurazone] yielded an average inhibition zone in [2] of 33 mm. Further, in [3], the “average zone of inhibition” value is reported as 35 mm.

As to `OCl` [NaOCl, sodium hypochlorite], the zone of inhibition entry in [1] was “no zones of inhibition”. In addition, the “susceptibility of the strain” value in experiment [2] is on record as “susceptible to all products tested except”. Further, in experiment [3] (only inhibited P. polymyxa, B. sphaericus and B. cereus), the average zone size turned out to be 16 mm.

As for `C=C(C)[C@H]1CC=C(C)CC1` [d-limonene], the “Growth at 24 hr” value in experiment [4] (24 hr), in experiment [6] (24 hr), in experiment [7] (24 hr), in [9] (24 hr), in [10] (24 hr) and in [11] (24 hr) was “NG” each time. Further, the “Growth at 24 hr” value in experiment [13] (24 hr) is recorded as “NG*”; in experiment [14] (24 hr), “NG”; in experiment [15] (24 hr), “NG”; in [16] (24 hr) it was “NG”; in experiment [17] (24 hr), “NG*”. For the same compound, the “Growth at 48 hr” value in experiment [4] (48 hr), in experiment [6] (48 hr), in experiment [7] (48 hr), in experiment [9] (48 hr), in experiment [10] (48 hr) and in [11] (48 hr) was “NG” in each case. Besides, the “Growth at 48 hr” value in experiment [13] (48 hr), in experiment [14] (48 hr), in [15] (48 hr), in [16] (48 hr) and in [17] (48 hr) was “NG” throughout. Also, the “Growth at 72 hr” value in [4] (72 hr), in experiment [6] (72 hr), in experiment [7] (72 hr), in [9] (72 hr), in experiment [10] (72 hr) and in experiment [11] (72 hr) was “NG” throughout. In addition, the “Growth at 72 hr” value in experiment [13] (72 hr), in experiment [14] (72 hr), in experiment [15] (72 hr), in [16] (72 hr) and in [17] (72 hr) was “NG” each time. In addition, the “eradication of the pathogen” value in experiment [5], in [8] and in experiment [12] was “effective in eradicating” in each case. The compound further returned a zone of inhibition in experiment [1] of 21 mm. In addition, the average inhibition zone in experiment [2] was 30 mm. For the same compound, in experiment [3], the “average zone of inhibition” value was found to be 21 mm.

In the case of `NCc1ccc(S(N)(=O)=O)cc1` [mafenide acetate], in experiment [1], the “susceptibility of the strain” value is reported as “susceptible” and the zone of inhibition is on record as 34 mm. Besides, in experiment [2], the average inhibition zone is on record as 38 mm and the “susceptibility of the strain” value is listed as “susceptible”. The “average zone of inhibition” value in experiment [3] worked out at 36 mm.

The values are drawn from patent US20040076590A1, “Antibacterial toothpaste and mouthwash formulations” (priority 2002, published 2004).
